Results: US20080306102A1, “NOVEL SPIROOXYINDOLE COMPOUNDS AND DRUGS CONTAINING SAME” (KOWA CO., LTD., priority 2007, published 2008)
Where two headings read alike, the source gives them in different places.

Columns and labels:
[1] = molecular target: T1, human 11β-HSD1 (Homo sapiens, UniProt P28845); assay: Human 11β-HSD1 enzyme inhibitory activity (lysate of stably expressing HEK293 cells, cortisol by competitive ELISA); format: biochemical
T1 construct: expressed in transfected cells; sonicated cell suspension used as lysate
Experimental: (§1) Human 11β-HSD1-, human 11β-HSD2-Gene Clonings and Establishment of Stably Expressing Cells
(§2) Human 11β-HSD1- and human 11β-HSD2-gene clonings were conducted using as a template a reverse transcription product of human-liver RNA and human-kidney RNA (CELL APPLICATIONS) respectively, by means of PCR cloning with reference to nucleotide sequences of Genbank Accession No. NM_00.5525 and NM 000196. The obtained PCR products of about 0.9 kbp and 1.2 kbp were subcloned into an expression vector pcDNA3.1+/Zeo (Invitrogen).
(§3) Human 11β-HSD1- and human 11β-HSD2-expressing vectors were transfected into human kidney-derived cell line, HEK293 cells, using a transfection reagent, jet PEI (Funakoshi). Selection was conducted with 400 μg/mL of zeocine (Invitrogen) to provide stably-expressing-cell clones. The stably expressing cells were suspended in buffer solution A (20 mmol/L Tris-HCl, pH 7.4, 250 mmol/L sucrose, 1 mmol/L EGTA, 1 mmol/L EDTA, 1 mmol/L MgCl2), sonicated, and then stored at −80° C.
(§4) An enzymatic reaction was conducted using a polystyrene 96-well plate. Each well was added with 1 μL of a test agent dissolved in DMSO and then diluted (0.003 to 3 mmol/L), and further added with 10 μL of cell lysate diluted to a concentration of 0.1 mg/mL to 0.4 mg/mL. Next, 90 μL of buffer solution A containing substrate (100 nmol/L cortisone) and coenzyme (400 μmol/L NADPH) was added and the mixture was incubated at 37° C. for 1 hour. The enzymatic reaction was stopped by treating at 95° C. for 3 minutes. Cortisol that was present in the reaction solution was determined by a competitive ELISA shown below.
Anti-rabbit IgG antibody (Chemi-con) diluted to 2 μg/mL with carbonate buffer solution (pH 9.6) was added in 100 μL each to a 96-well immuno plate (Nunc) and immobilized by incubating at 4° C. overnight. 50 μL of enzymatic reaction solution was put onto the plates, and further, anti-cortisol antibody (Cosmo Bio) and HRP-labeled cortisol (Cosmo Bio), diluted with buffer solution B (25 mmol/L Tris-HCl pH 7.4, 137 mmol/L NaCl, 2.68 mmol/L KCl), were added in 50 μL respectively and incubated at 4° C. overnight. After washed three times with buffer solution B containing 0.05% Tween 20, the plates were allowed to develop color by adding 100 μL of color reagent, TMB (Moss). The color reaction was stopped by 25 μL of 1 mol/L sulfuric acid and the absorbance was determined at 450 nm with a microplate reader (Molecular Device, VersaMax).
The values of human 11β-HSD1 and human 11β-HSD2 activities were subtracted from 100, and the resultant values were regarded as the respective 11β-HSD inhibition rates of example compounds. For each example compound, the value of 50% inhibitory concentration (IC50) was calculated from 11β-HSD inhibition rates at plural concentrations, for 11β-HSD1 and 11β-HSD2 activities.

[2] = molecular target: T2, human 11β-HSD2 (Homo sapiens, UniProt P80365); assay: Human 11β-HSD2 enzyme inhibitory activity (lysate of stably expressing HEK293 cells, cortisol by competitive ELISA); format: biochemical; details: human 11β-HSD2, HEK293 cell lysate, 37° C. 1 hour
T2 construct: expressed in transfected cells; sonicated cell suspension used as lysate
T2 sequence (P80365 1-405): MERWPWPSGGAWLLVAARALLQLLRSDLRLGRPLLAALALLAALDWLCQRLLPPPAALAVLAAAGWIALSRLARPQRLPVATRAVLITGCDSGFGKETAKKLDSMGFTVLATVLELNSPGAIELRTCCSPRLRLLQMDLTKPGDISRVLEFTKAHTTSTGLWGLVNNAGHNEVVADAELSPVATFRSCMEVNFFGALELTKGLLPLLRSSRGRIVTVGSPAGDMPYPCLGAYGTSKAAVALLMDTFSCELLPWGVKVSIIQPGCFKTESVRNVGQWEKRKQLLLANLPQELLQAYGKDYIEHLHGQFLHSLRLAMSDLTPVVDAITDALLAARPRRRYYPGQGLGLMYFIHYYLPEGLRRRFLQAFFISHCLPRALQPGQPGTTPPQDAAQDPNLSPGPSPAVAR
Experimental: as §1, §2, §3, §4
Anti-rabbit IgG antibody (Chemi-con) diluted to 2 μg/mL with carbonate buffer solution (pH 9.6) was added in 100 μL each to a 96-well immuno plate (Nunc) and immobilized by incubating at 4° C. overnight. […] The color reaction was stopped by 25 μL of 1 mol/L sulfuric acid and the absorbance was determined at 450 nm with a microplate reader (Molecular Device, VersaMax). […]

[3] = human 11β-HSD1, HEK293 cell lysate, 100 nmol/L cortisone, 400 μmol/L NADPH, 37° C. 1 hour, read-out: IC50(μM) HSD1

T1 sequence (P28845 whole entry): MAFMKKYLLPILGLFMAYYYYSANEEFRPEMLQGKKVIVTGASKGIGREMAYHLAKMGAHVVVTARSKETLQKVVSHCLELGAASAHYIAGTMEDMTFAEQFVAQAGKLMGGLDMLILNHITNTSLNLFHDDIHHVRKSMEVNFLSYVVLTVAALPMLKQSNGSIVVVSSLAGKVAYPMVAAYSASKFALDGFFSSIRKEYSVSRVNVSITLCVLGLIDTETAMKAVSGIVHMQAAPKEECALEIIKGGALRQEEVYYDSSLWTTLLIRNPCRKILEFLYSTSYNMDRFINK

Row | IC50 [1, 3] [µM] | IC50 [2] [µM] | IC50 ([1]; compound A actually synthesized and measured by the applicant, read-out: 50% inhibitory concentration (IC50) for 11β-HSD1 activity) [µM] | SMILES
1 | 0.033 | – | – | O=C(COc1ccccc1C(F)(F)F)N1CCC2(CC1)C(=O)Nc1ccccc12 [Example 1, 1′-{2-(2-trifluoromethylphenoxy)acetyl}spiro(indole-3,4′-piperidine)-2(1H)-one]
2 | 0.82 | – | – | Cc1ccccc1OCC(=O)N1CCC2(CC1)C(=O)Nc1ccccc12 [Example 2, 1′-{2-(2-methylphenoxy)acetyl}spiro(indole-3,4′-piperidine)-2(1H)-one]
3 | 0.087 | > 30 | – | O=C(COc1ccccc1I)N1CCC2(CC1)C(=O)Nc1ccccc12 [Example 10, 1′-{2-(2-iodophenoxy)acetyl}spiro(indole-3,4′-piperdine)-2 (1H)-one]
4 | 1 | – | – | O=C(COc1ccccc1[N+](=O)[O-])N1CCC2(CC1)C(=O)Nc1ccccc12 [Example 12, 1′-{2-(2-nitrophenoxy)acetyl}spiro(indole-3,4′-piperidine)-2(1H)-one]
5 | 0.96 | – | – | O=C(COc1cccc(Cl)c1Cl)N1CCC2(CC1)C(=O)Nc1ccccc12 [Example 40, 1′-{2-(2,3-dichlorophenoxy)acetyl}spiro(indole-3,4′-piperidine)-2(1H)-one]
6 | 0.41 | > 30 | – | O=C(COc1ccccc1Br)N1CCC2(CC1)C(=O)Nc1ccccc12 [Example 49]
7 | 0.73 | – | – | CC(C)(C)c1ccccc1OCC(=O)N1CCC2(CC1)C(=O)Nc1ccccc12 [Example 52, 1′-{2-(2-t-butylphenoxy)acetyl}spiro(indole-3,4′-piperidine)-2(1H)-one]
8 | 0.16 | – | – | O=C(CSc1ccccc1C(F)(F)F)N1CCC2(CC1)C(=O)Nc1ccccc12 [Example 70, 1′-{2-(2-trifluoromethylphenylthio)acetyl}spiro(indole-3,4′-piperidine)-2(1H)-one]

The next lines start with the molecule.

Row | SMILES | IC50 [1, 3] [µM] | IC50 [2] [µM] | IC50 ([1]; compound A actually synthesized and measured by the applicant, read-out: 50% inhibitory concentration (IC50) for 11β-HSD1 activity) [µM]
9 | CN1C(=O)C2(CCN(C(=O)COc3ccccc3C(F)(F)F)CC2)c2ccccc21 [Example 76, 1-methyl-1′-{2-(2-trifluoromethylphenoxy)acetyl}spiro(indole-3,4′-piperidine)-2-one] | 0.068 | > 30 | –
10 | CCN1C(=O)C2(CCN(C(=O)COc3ccccc3C(F)(F)F)CC2)c2ccccc21 [Example 80, 1-ethyl-1′-{2-(2-trifluoromethylphenoxy)acetyl}spiro(indole-3,4′-piperidine)-2-one] | 0.67 | – | –
11 | CCCN1C(=O)C2(CCN(C(=O)COc3ccccc3C(F)(F)F)CC2)c2ccccc21 [Example 81, 1-propyl-1′-{2-(2-trifluoromethylphenoxy)acetyl}spiro(indole-3,4′-piperidine)-2-one] | 0.43 | – | –
12 | O=C(COc1ccccc1C(F)(F)F)N1CCC2(CC1)C(=O)N(C1CC1)c1ccccc12 [Example 84, 1-cyclopropyl-1′-{2-(2-trifluoromethylphenoxy)acetyl}spiro(indole-3,4′-piperidine)-2-one] | 0.72 | – | –
13 | O=C(N1CCC2(CC1)C(=O)Nc1ccccc12)C1(c2ccc(Cl)cc2)CC1 [compound A, 1′-{[1-(4-Chlorophenyl)cyclopropyl]carbonyl}spiro[indole-3, 4′-piperidin]-2(1H)-one, reference compound] | – | – | 3
